In patent publication US7919077B2, “Pharmaceutical compositions comprising CCL2 and use of same for the treatment of inflammation” (Yeda Research and Development Co. Ltd., priority 2006, dated 2011):

Assays:
TNBS colitis mouse model = type: in vivo, mice; details: dexamethasone i.p. daily
Protocol: TNBS colitis model and treatment with CCL2—TNBS colitis was induced as previously described [Ohkawara et al. (2002) Gastroenterology, 123:256]. Briefly, mice were anesthetized by i.p. injection (35 μl per mouse) of a mixture containing 85% ketamine and 15% xylazine (20 mg/ml). Next, 100 μl of TNBS [55% volume of 50% ethanol mixed with 45% volume of TNBS solution ([…]; Sigma-Aldrich)] was infused into the colonic lumen (about 3.5 cm of the anal verge) via 1 ml syringe attached to a feeding needle. Treated mice were weighted daily and visually inspected for clinical symptoms, such as rectal bleeding and diarrhea.
TNBS mice were divided into 6 groups. CCL2 groups (10 mice in each group) were injected i.p. daily with different CCL2 concentrations (30 ng, 60 ng or 180 ng) in 200 μl of PBS from day 0 (immediately after TNBS induction) to day 6. Control groups (10 mice in each group) were injected i.p. daily with 200 μl PBS alone. Additionally, 5 mice were injected i.p. daily with dexamethasone; and 1 mouse which was not treated and served as negative control for future histology and weight.
Macroscopic and histological assessment of colitis—An observer blind to the experimental procedure scored colitis for clinical manifestation of disease. The colon was macroscopically examined (×5 magnification) to evaluate the macroscopic lesions according to the Wallace criteria. The Wallace score ranks macroscopic colon lesions on a scale from 0 to 16 based on criteria reflecting inflammation, such as hyperemia, thickening of the bowel and the extent of ulceration. The colon was cut lengthwise and fixed in 4% paraformaldehyde for future histology.

naïve T cells = assay: Cytoskeleton rearrangement (actin polymerization), naïve T cells; type: cell-based, mice; details: CCL21 stimulation in presence of chemokine 0.1 ng/ml; FIG. 2e
Protocol: Cytoskeleton rearrangement—T cells were pre-incubated for 30 minutes in the presence or absence of CCL2 (0.1 ng/ml), and then stimulated with either CXCL12 (0.1 mg/ml PeproTech, Inc., Rocky Hill N.J.), SLC (CCL21, 0.4 mg/ml, PeproTech, Inc., Rocky Hill, N.J.), Rantes (0.1 mg/ml, R&D systems Minneapolis, Minn.), MIP-1β(0.1 mg/ml, R&D systems Minneapolis, Minn.) or Eotoxin (0.1 mg/ml R&D systems Minneapolis, Minn.) for 15 seconds. Cells were then immediately fixed with paraformaldehyde, permeabilized and their intracellular F-actin was stained with FITC-phalloidin (Sigma-Aldrich, St. Louis, Mo.), and then analyzed by flow cytometry to determine the state of their cytoskeleton, as previously described [Flaishon, L. F., et al., J. Biol. Chem. 276:46701 (2001)].

[1] = test system: human T cells interacting with ICAM-1 (LFA-1); assay: Laminar flow adhesion assay on ICAM-1 with co-immobilized CCL21; type: cell-based; details: low dose chemokine pretreatment
Protocol: (§1) Laminar flow adhesion assays—Purified VCAM-1 or ICAM-1-Fc (both from R&D Systems, Minneapolis, Minn.) were coated with or without CCL21 (R&D Systems) on polystyrene plates as previously described [Grabovsky et al., J Exp Med. (2000) 192:495-506; Sigal et al., J Immunol. (2000) 165:442-452]. The polystyrene plates were each assembled on the lower wall of the flow chamber as previously described [Feigelson et al., J Biol Chem. (2001) 276:13891-13901]. All flow experiments were conducted at 37° C. Cells were washed with cation-free H/H medium, resuspended in binding medium (H/H medium supplemented with 1 mM CaCl2 and 1 mM MgCl2) and perfused through the flow chamber at low shear stress (0.5-0.75 dyn/cm^2) for 2 minutes. Tethers were defined as transient or rolling if cells attached briefly (<2 seconds) to the substrate and as arrests if immediately arrested and remaining stationary for at least 5 seconds of continuous flow. Frequencies of adhesive categories within differently pretreated cells were determined as a percentage of cells flowing immediately over the substrates, as previously described [Grabovsky et al., supra]. To assess resistance to detachment over time, accumulated cells were subjected to a shear stress of 5 dyn/cm^2 for 5 minutes. At the indicated time points, the number of cells that remained bound was expressed relative to T cell population originally accumulated in the first 2 minute period of the assay. Over 90% of cellular tethers to VCAM-1 or ICAM-1 were blocked by pretreating cells with VLA-4 or LFA-1 blockers respectively.

[2] = test system: human T cells interacting with VCAM-1 (VLA-4); assay: Laminar flow adhesion assay on VCAM-1 with co-immobilized CCL21; type: cell-based; details: low dose chemokine pretreatment
Protocol: as §1

Question: Which “Colon length (cm)” value (TNBS colitis mouse model) does the source give for `C[C@@H]1C[C@H]2[C@@H]3CCC4=CC(=O)C=C[C@]4(C)[C@@]3(F)[C@@H](O)C[C@]2(C)[C@@]1(O)C(=O)CO` [dexamethasone, reference compound] here?
Answer: Its value is 8.17 ± 0.76 cm.

Question: And the “Diarrhea (# of mice)” value (TNBS colitis mouse model; 3 mice)?
Answer: Its value is 0 # of mice.

Question: And the Colitis score (TNBS colitis mouse model; Wallace score 0 to 16, mean±SEM)?
Answer: Its Colitis score is 0.67 ± 0.58.

Question: Which results are given for “CXCL12: chemokine, chemoattractant for T cells; tested at low dose as comparator [reference compound]”?
Answer: inhibitory effect of low levels of chemokine on actin polymerization of naïve T cells (naïve T cells): no inhibitory effect; post arrest adhesion strengthening on ICAM-1 (resistance to detachment) ([1]; high shear stress 5 dyn/cm^2, FIG. 6b): retained; LFA-1 activation by surface bound CCL21 (arrest on ICAM-1) ([1]; shear stress 0.5 dyn/cm^2, FIG. 6a): retained; post arrest adhesion strengthening on VCAM-1 (resistance to detachment) ([2]; high shear stress 5 dyn/cm^2, FIG. 6d): retained; VLA-4 activation by surface bound CCL21 (arrest on VCAM-1) ([2]; shear stress 0.75 dyn/cm^2, FIG. 6c): retained

Question: Which “inhibitory effect of low levels of chemokine on actin polymerization of naïve T cells” value (from here on “inhibitory effect”) (naïve T cells) does the source give for “Eotoxin: comparator chemokine (R&D systems) [reference compound]” here?
Answer: Its value is “no inhibitory effect”.

B1: Mip1β: comparator chemokine (R&D systems) (protein, UniProt P13236 24-92, looked up)
C-C motif chemokine 4: APMGSDPPTACCFSYTARKLPRNFVVDYYETSSLCSQPAVVFQTKRSKQVCADPSESWVQEYVYDLELN
Question: Which “inhibitory effect” value (naïve T cells) does the source give for B1 here?
Answer: The value was “no inhibitory effect”.

B2: Rantes: comparator chemokine (R&D systems) (protein, UniProt P13501 24-91, looked up)
C-C motif chemokine 5: SPYSSDTTPCCFAYIARPLPRAHIKEYFYTSGKCSNPAVVFVTRKNRQVCANPEKKWVREYINSLEMS
Question: Which “inhibitory effect” value (naïve T cells) does the source give for B2 here?
Answer: Its value is “no inhibitory effect”.
